Results on nine molecules are retold here after patent US20240400972A1, “Antifouling Composition and Process for Production Thereof” (priority 2015, published 2024).

Each structure is given as a SMILES string. Some results are limits rather than exact numbers.

Assay [1] deals with extracellular proteases of PF-11 and NTC secretomes. Format: biochemical. To be noted: 10 mM inhibitor, relatively to non-treated control.
Protocol: Briefly, 12% SDS-polyacrylamide gels (Laemmli 1970) were co-polymerized with 1% casein or gelatin at 4° C. Non reducing loading buffer (62.5 mM Tris, 2% SDS, 10% glycerol, 0.001% bromophenol blue) was added to secretome samples prior to loading. Electrophoresis was performed at 4° C. and 100 V until the bromophenol dye reached the bottom of the gel. After electrophoresis, gels were rinsed two times in 2.5% (v/v) Triton X-100, 30 min each, for SDS removal, followed by three washes, 5 min each, in deionized water. Gels were then incubated in activation buffer (0.1M Tris-HCl, 0.01M CaCl2, pH 8), at 37° C. for enzyme renaturation and subsequent proteolytic activity. The gels were washed three times, 5 min each, in deonized water prior to incubation for 1 h in Coomassie Brilliant Blue R-250. […] Protease activity was visible as clear bands on a blue background. […] Protease inhibition by phenyl methyl sulfonyl fluoride (PMSF) and EDTA was determined as described by Bertolini and Rohovec (Bertolini and Rohovec 1992).
Further evaluations of the type of proteases present in the extracellular protease producers were performed by selective inhibition of serine proteases by PMSF and of metallo-proteases by EDTA.
Assay [2] concerns sea lice larvae and copepodids. Description: Sea lice larvae and copepodids viability bioassay. Format: in vivo, Lepeophtheirus salmonis salmonis. To be noted: 70 ppm, positive control. The procedure:
The assay consisted on incubating sea lice (Lepeophtheirus salmonis salmonis) larvae and copepodids with PF-11 secretome in order to evaluate the viability of the larvae and copepodids compared to a blank control. Sodium hypocholorite (NaoCl), known to kill the larvae within 40 min at 70 ppm, was used as a positive control. Larvae were obtained by sedating salmon sea lice with Benzocain, harvesting egg strings with tweezers, and transferring the strings to a water bath placed in an incubator. Inside the incubator, the water was continuously changed throughout the incubation period. When the larvae were developed, they were removed from the incubator and used in the bioassay. Copepodids were developed from egg strings from sea lice as described for larvae. Seawater containing louse larvae and copepodids was placed in a petri dish and PF-11 secretome was added to the final pretended concentration. Larvae and copepodids in seawater with no added compounds were also used for comparison. The positive control was NaOCl at 70 ppm. The larvae and copepodids viability was checked over time. An evaluation of larvae viability was performed and compared to the viability in the blank controls. The viability in the pure seawater control and the medium blank control was monitored and compared and remained the same throughout the experiment.

Assay [3] has as its system sea lice larvae and copepodids. To be noted: 70 ppm; cited from earlier work.
In the next assay the test system is Strain PF-11. It counts as cell-based, Pseudomonas putida. To be noted: CLSI standards, EUCAST resistance breakpoints. The procedure: MICS (Minimum Inhibitory Concentration) was determined by agar dilution and disk diffusion according to CLSI standards (CLSI, M02-A10; CLSI, M100-S21). Briefly, LA plates were prepared supplemented with serial dilutions of the antibiotic to be tested to determine the MIC. The lowest antibiotic concentration preventing growth of the strain is considered the MIC value. The strain Escherichia coli ATCC 25922 was used as control strain, as recommended.

As to `O=C(O)CN(CCN(CC(=O)O)CC(=O)O)CC(=O)O` [EDTA], the “inhibition of proteolytic activity of PF-11 and NTC secretomes” value in assay [1] is listed as “strongly inhibited”.
As for `[Na+].[O-]Cl` [NaOCl, Sodium hypocholorite], the “required time to become 100% effective” value in assay [2] came out at 20 min. The “time to kill the larvae” value in assay [3] is at most 40 min.
For `O=S(=O)(F)Cc1ccccc1` [PMSF, phenyl methyl sulfonyl fluoride], the “inhibition of proteolytic activity of PF-11 and NTC secretomes” value in assay [1] is reported as “significantly lower inhibitory effects”.
On to `CC1(C)S[C@@H]2[C@H](NC(=O)[C@H](N)c3ccc(O)cc3)C(=O)N2[C@H]1C(=O)O` [amoxycillin], for which the “susceptibility of strain PF-11” value in the assay with Strain PF-11 is listed as “resistant”.
Same read-out and setting: in the case of `CC1(C)S[C@@H]2[C@H](NC(=O)[C@H](N)c3ccccc3)C(=O)N2[C@H]1C(=O)O` [ampicilin] it was “resistant”; in that of `C[C@H]1[C@H](NC(=O)/C(=N\OC(C)(C)C(=O)O)c2csc(N)n2)C(=O)N1S(=O)(=O)O` [aztreonam], “resistant”; in that of `CO/N=C(\C(=O)N[C@@H]1C(=O)N2C(C(=O)O)=C(COC(C)=O)CS[C@H]12)c1csc(N)n1` [cefotaxime], “resistant”.
On the same count and under the same terms, to `CO[C@@]1(NC(=O)Cc2cccs2)C(=O)N2C(C(=O)O)=C(COC(N)=O)CS[C@@H]21` [cefoxitine] belongs “resistant”.
The same measure, in the same setting: in the case of `CC(C)(O/N=C(\C(=O)N[C@@H]1C(=O)N2C(C(=O)[O-])=C(C[n+]3ccccc3)CS[C@H]12)c1csc(N)n1)C(=O)O` [ceftazidime] it was “resistant”.
